Laboratory results reported in US20180256611A1, “BISPHOSPHONATES FOR INCREASING THE TYPE 2 CHARACTER OF A MODIC CHANGE” (ANTECIP BIOVENTURES II LLC, priority 2017, published 2018).
Values joined by “and” are separate entries in the source; they are usually repeats but may differ in a detail not shown here. Equal values may be shown once.

Test system: Modic changes (MC) on MRI in chronic LBP patients
Test: MRI study of size and type of Modic changes over one year after a single intravenous infusion of 5 mg zoledronic acid vs placebo
Assay type: in vivo, human
Procedure: This study was designed to compare changes in size and type of MC over one year after a single intravenous infusion of 5 mg zoledronic acid (ZA) vs placebo among chronic LBP patients with MC on MRI, and evaluate whether MRI changes correlate with improvement in clinical symptoms.
The study population consisted of patients with chronic LBP and MC on MRI. Inclusion criteria were LBP for at least three months, LBP intensity of at least six on a 10-cm Visual Analog Scale (VAS) or Oswestry Disability Index (ODI) of at least 30%, and a MC on MRI performed within at most six months prior to enrollment. The exclusion criteria included renal impairment, hypocalcaemia, hypersensitivity to bisphosphonates or the infusion, the presence of red flags, nerve root entrapment, willingness for early retirement, and childbearing potential.
All patients (N=20 in both intervention groups) had MRI at baseline (0.23-1.5 T) and one year (1.5-3 T). We evaluated the level, type, volume (cm^3) and proportion of M1 and M2 of all MC. MC were classified to pure M1 (M1 (100%)), mixed M1/2 with predominating M1 (M1/2 (65:35%)) or predominating M2 (M1/2 (35:65%)), and pure M2 (M2 (100%)). The first two were considered M1-dominant, and the latter two M2-dominant. Volumes of M1 and M2 were calculated separately for the primary MC, assumed to cause the symptoms, and for other MC. Cross tabulations were used to describe the distributions of MC type in ZA and placebo groups at baseline and one year. The treatment differences in M1 and M2 volumes, from baseline to one year, were analyzed using ANCOVA with adjustments for age, sex, body mass index and smoking. The correlations of MRI changes with changes in intensity of LBP (10-cm Visual Analog Scale) and Oswestry Disability Index (ODI) were analyzed using Pearson correlations.
Patients were randomized to receive a single intravenous infusion of 5 mg ZA in 100 ml saline (n=20) or 100 ml saline as placebo (n=20) over a 15-minute period. Before administration of the infusion, all patients received oral ibuprofen 600 mg or paracetamol 1 g to prevent acute phase reactions, and 100 000 units of Vitamin D (Vigantol®) to prevent hypocalcaemia. Patients, the principal investigator, performing the screening and follow-up assessments, and the radiologist evaluating the MRI scans were blinded to the treatment allocation.
Baseline MRIs were obtained with five 1.5 T units and a 0.23 T unit. There was some variation in imaging protocols due to the multiple units used. Protocols were of clinical imaging purpose established to spine imaging. The imaging parameters of sagittal T1-weighted (T1W) turbo spin-echo (TSE) or fast spin-echo (FSE) sequences with fluid attenuation inversion recovery (FLAIR) were repetition time (TR) 1800-2270 ms/inversion time (TI) 860 ms/echo time (TE) 9-29 ms (N=16) and without FLAIR: TR 326-793 ms/TE 8-18 ms (N=23). The imaging parameters of sagittal T2-weighted (T2W) TSE/FSE sequences were TR 3000-4500 ms/TE 105-130 ms (N=40). The imaging parameters of short tau inversion recovery sequences (STIR) were e.g. TR 3400/TI 150/TE 70. Spacing, including slice thickness and slice gap, of the image slices was 4.4-6.2 mm in all sequences.
At the one-year follow-up, MRIs were obtained with two 1.5 T units and a 3 T unit. The imaging parameters of sagittal T1-weighted TSE or FSE sequences with FLAIR were TR 2047-2270 ms/TI 860-900 ms/TE 9-29 ms (N=38) and without FLAIR: TR 540-587/TE 12-24 ms (N=2). The imaging parameters of sagittal T2-weighted TSE or FSE sequences were TR 2796-3500 ms/TE 101-123 ms (N=40). Spacing was 3.6-5 mm in all sequences.

[1] = ZA vs placebo, change to follow-up

O=P(O)(O)C(O)(Cn1ccnc1)P(=O)(O)O [ZA, zoledronic acid]
Total volume of other than the primary Modic lesion, difference (95% CI), unadjusted (ZA vs placebo): −0.21 (−1.28, 0.86) cm^3 | Volume of M1 of other than the primary Modic lesion, difference (95% CI), unadjusted (ZA vs placebo): −0.17 (−2.12, 1.78) cm^3 | Volume of M2 of other than the primary Modic lesion, difference (95% CI), unadjusted (ZA vs placebo): −0.04 (−1.99, 1.90) cm^3 | Total volume of the primary Modic lesion, difference (95% CI), adjusted for age, sex, BMI and smoking [1]: −1.64 (−4.03, 0.76) cm^3 | Total volume of the primary Modic lesion, difference (95% CI), age-adjusted analysis [1]: −1.46 (−3.50, 0.59) cm^3 | Volume of M1 of the primary Modic lesion, difference (95% CI), age-adjusted analysis [1]: −1.92 (−4.65, 0.82) cm^3 | Volume of M2 of the primary Modic lesion, difference (95% CI), adjusted for age, sex, BMI and smoking [1]: 0.12 cm^3 and 0.12 (−2.50, 2.75) cm^3 | Volume of M2 of the primary Modic lesion, difference (95% CI), age-adjusted analysis [1]: 0.46 (−1.90, 2.82) cm^3 | Proportion of M1 volume of the total volume, other than primary MC (at baseline, placebo 22%): 13% | Proportion of M1 volume of the total volume, other than primary MC (at one year, placebo 36%): 24% | Total volume of other than the primary Modic lesion, mean (SD) (baseline): 7.53 (7.53) cm^3 | Total volume of the primary Modic lesion, mean (SD) (baseline): 12.0 cm^3 and 11.99 (5.14) cm^3 | Volume of M2 of other than the primary Modic lesion, mean (SD) (baseline): 6.52 (7.63) cm^3 | Volume of M2 of the primary Modic lesion, mean (SD) (baseline): 4.54 (3.90) cm^3 | Total volume of other than the primary Modic lesion, mean (SD) change (baseline to follow-up): 0.39 (1.02) cm^3 | Volume of M1 of other than the primary Modic lesion, mean (SD) change (baseline to follow-up): 0.86 (2.19) cm^3 | Volume of M2 of other than the primary Modic lesion, mean (SD) change (baseline to follow-up): −0.47 (2.44) cm^3 | Total volume of other than primary MC increased by (baseline to one year, placebo 11%): 5% | M2 volume of primary MC increased by (baseline to one year, placebo 34%): 56% | M1 volume of primary MC decreased by (baseline to one year, placebo increased by 18%): 13% | Total volume of the primary Modic lesion, mean (SD) change (baseline to one-year follow-up): 1.6 cm^3 and 1.58 (2.18) cm^3 | Volume of M1 of the primary Modic lesion, mean (SD) change (baseline to one-year follow-up): −0.96 cm^3 and −0.96 (4.33) cm^3 | Volume of M2 of the primary Modic lesion, mean (SD) change (baseline to one-year follow-up): 2.54 cm^3 and 2.54 (2.94) cm^3 | Volume of M1 of other than the primary Modic lesion, mean (SD) (baseline, n=17): 1.02 (1.90) cm^3 | Volume of M1 of the primary Modic lesion, mean (SD) (baseline, n=20): 7.44 (4.47) cm^3 | Total volume of other than the primary Modic lesion, mean (SD) (follow-up): 7.92 (7.31) cm^3 | Volume of M1 of other than the primary Modic lesion, mean (SD) (follow-up): 1.88 (2.47) cm^3 | Volume of M2 of other than the primary Modic lesion, mean (SD) (follow-up): 6.05 (6.43) cm^3 | Total volume of the primary Modic lesion, mean (SD) (follow-up (one year)): 13.57 (5.42) cm^3 | Volume of M1 of the primary Modic lesion, mean (SD) (follow-up (one year)): 6.48 (5.25) cm^3 | Volume of M2 of the primary Modic lesion, mean (SD) (follow-up (one year)): 7.09 (4.50) cm^3 | M1-dominant primary MC converted to M2-dominant (one-year follow-up, placebo 15% (p=0.087)): 45%
